Results on two molecules are retold here after PMC10388794 (Journal of Enzyme Inhibition and Medicinal Chemistry, 2023).

Molecules are shown by their SMILES.

The subject of experiment [1] is Aβ1–42-induced cognitive impairment in mice. The experiment can be described thus: Morris water maze in Aβ1–42-induced cognitive impairment model. Type of experiment: in vivo. To be noted: T14-A24 10 mg/kg po, donepezil 15 mg/kg po.
The target of experiment [2] is recombinant human AChE (hAChE) (Homo sapiens, UniProt P22303). In words: hAChE inhibition assay. Type of experiment: biochemical. To be noted: read-out: hAChE inhibition rate % at 20 µM.
recombinant human AChE (hAChE), sequence (P22303 32-614): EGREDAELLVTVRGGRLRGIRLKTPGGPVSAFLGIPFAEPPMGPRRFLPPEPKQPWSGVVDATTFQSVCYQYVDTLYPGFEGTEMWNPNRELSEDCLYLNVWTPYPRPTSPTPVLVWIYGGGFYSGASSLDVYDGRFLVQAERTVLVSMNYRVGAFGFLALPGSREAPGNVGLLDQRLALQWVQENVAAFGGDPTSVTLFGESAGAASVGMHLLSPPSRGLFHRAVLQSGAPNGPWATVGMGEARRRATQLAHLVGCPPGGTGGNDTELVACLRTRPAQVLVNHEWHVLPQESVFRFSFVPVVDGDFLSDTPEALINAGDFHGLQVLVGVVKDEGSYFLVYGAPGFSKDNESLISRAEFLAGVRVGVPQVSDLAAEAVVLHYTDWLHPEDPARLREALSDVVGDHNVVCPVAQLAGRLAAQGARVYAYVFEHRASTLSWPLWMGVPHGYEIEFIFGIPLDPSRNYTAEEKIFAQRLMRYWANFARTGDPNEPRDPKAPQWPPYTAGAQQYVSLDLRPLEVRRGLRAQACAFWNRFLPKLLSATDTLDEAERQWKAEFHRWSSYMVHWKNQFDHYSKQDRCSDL

On to `COc1cc2c(cc1OC)C(=O)C(CC1CCN(Cc3ccccc3)CC1)C2` (centres unmarked) [Donepezil], for which, in experiment [1], the “Aβ1–42-induced cognitive dysfunction (Morris water maze)” value was “significantly improved”. For `CCN(C)C(=O)Oc1cccc([C@H](C)N(C)C)c1` [Rivastigmine], the inhibition at 20 µM in experiment [2] worked out at 16.5 ± 0.8%.

Usually inhibition stands for the percentage by which the read-out fell short of the control.
